Some targets named below: CDK1 CCNA2 (human) (UniProt P06493+P20248); CDK1 CCNB1 (human) (UniProt P06493+P14635); CDK2 CCNA2 (human) (UniProt P24941+P20248); CDK2 CCNE1 (human) (UniProt P24941+P24864); CDK3 CCNE1 (human) (UniProt Q00526+P24864); CDK4 CCND1 (human) (UniProt P24385+P11802); CDK4 CCND3 (human) (UniProt P30281+P11802); CDK5 CDK5R1 p25 (human) (UniProt Q00535+Q15078); CDK5 CDK5R1 p35 (human) (UniProt Q00535+Q15078); CDK6 CCND1 (human) (UniProt Q00534+P24385); CDK6 CCND3 (human) (UniProt P30281+Q00534); CDK7 CCNH MNAT1 (human) (UniProt P50613+P51948+P51946); CDK9 CCNK (human) (UniProt O75909+P50750); CDK9 CCNT1 (human) (UniProt P50750+O60563); EPHB2 (human) (UniProt P29323); FRK (human) (UniProt P42685); MAP3K7 TAB1 (human) (UniProt O43318+Q15750); PRKCH (human) (UniProt P24723); DYRK1B (human) (UniProt Q9Y463); LTK (human) (UniProt P29376); STK33 (human) (UniProt Q9BYT3); TLK2 (human) (UniProt Q86UE8).

What all share (assay): radiometric filter-binding kinase assay, Kinase HotSpot
Conditions in all cases: compound 0.5 µM; ATP 10 µM

Molecules are shown by their SMILES.

For orientation: residual activity means the signal under treatment as a percentage of the control signal.

Sequence of DYRK1B (human) (Q9Y463 whole entry, looked up): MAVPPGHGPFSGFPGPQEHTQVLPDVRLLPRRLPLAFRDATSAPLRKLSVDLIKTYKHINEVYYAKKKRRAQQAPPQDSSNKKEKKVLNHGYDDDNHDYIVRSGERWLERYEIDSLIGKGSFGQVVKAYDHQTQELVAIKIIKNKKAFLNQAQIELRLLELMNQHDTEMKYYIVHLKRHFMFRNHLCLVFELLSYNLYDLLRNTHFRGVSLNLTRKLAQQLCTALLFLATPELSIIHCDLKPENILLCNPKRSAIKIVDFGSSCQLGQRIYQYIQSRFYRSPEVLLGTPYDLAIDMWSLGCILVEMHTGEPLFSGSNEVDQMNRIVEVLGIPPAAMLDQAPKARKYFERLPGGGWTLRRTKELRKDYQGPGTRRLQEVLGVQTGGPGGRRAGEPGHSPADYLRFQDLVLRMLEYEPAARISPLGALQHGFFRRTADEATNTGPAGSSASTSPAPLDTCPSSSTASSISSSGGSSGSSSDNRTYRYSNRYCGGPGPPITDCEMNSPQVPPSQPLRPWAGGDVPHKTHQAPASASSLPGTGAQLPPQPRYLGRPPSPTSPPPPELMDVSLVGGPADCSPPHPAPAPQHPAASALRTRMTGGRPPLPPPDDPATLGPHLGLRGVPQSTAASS
Sequence of PRKCH (human) (P24723 whole entry, looked up): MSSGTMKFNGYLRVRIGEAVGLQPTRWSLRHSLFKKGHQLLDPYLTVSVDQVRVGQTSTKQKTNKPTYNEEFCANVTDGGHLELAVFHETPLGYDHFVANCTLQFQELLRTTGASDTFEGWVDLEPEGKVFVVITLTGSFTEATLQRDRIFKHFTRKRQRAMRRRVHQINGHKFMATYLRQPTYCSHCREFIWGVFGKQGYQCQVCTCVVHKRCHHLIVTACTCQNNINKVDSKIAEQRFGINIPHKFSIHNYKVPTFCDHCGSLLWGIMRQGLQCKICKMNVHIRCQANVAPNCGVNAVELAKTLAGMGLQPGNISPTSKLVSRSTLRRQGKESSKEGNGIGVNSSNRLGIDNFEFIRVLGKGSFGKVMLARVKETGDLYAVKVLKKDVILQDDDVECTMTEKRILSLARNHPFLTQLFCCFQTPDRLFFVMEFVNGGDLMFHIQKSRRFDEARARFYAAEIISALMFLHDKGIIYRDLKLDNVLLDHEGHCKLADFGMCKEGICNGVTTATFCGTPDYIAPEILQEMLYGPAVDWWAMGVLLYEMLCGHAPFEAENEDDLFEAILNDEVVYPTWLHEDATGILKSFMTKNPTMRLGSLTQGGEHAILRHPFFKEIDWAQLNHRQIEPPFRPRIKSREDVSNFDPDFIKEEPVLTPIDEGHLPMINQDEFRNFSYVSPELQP
Sequence of STK33 (human) (Q9BYT3 whole entry, looked up): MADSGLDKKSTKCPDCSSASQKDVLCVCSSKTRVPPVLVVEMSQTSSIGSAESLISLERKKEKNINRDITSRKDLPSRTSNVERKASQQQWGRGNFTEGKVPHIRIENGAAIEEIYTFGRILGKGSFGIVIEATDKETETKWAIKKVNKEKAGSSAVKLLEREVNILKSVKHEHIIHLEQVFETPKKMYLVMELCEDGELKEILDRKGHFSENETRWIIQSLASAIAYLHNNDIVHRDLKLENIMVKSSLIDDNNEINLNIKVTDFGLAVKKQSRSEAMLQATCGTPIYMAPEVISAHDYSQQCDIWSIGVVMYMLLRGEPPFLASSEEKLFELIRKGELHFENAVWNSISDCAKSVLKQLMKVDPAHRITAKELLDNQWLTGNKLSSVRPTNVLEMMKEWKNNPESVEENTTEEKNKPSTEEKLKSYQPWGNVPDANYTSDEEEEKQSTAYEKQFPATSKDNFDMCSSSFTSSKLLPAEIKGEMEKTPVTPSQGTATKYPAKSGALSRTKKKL
Sequence of CDK6 CCND3 (human) (P30281 whole entry, looked up): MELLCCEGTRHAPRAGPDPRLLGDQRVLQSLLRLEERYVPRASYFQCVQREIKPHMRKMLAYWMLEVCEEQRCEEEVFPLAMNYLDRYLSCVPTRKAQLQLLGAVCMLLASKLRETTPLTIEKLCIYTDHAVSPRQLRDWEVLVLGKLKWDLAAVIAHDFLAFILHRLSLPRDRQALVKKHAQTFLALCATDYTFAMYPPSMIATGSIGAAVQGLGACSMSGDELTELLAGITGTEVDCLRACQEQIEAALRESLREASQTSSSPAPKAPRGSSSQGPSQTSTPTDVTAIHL
Sequence of CDK6 CCND3 (human) (Q00534 whole entry, looked up): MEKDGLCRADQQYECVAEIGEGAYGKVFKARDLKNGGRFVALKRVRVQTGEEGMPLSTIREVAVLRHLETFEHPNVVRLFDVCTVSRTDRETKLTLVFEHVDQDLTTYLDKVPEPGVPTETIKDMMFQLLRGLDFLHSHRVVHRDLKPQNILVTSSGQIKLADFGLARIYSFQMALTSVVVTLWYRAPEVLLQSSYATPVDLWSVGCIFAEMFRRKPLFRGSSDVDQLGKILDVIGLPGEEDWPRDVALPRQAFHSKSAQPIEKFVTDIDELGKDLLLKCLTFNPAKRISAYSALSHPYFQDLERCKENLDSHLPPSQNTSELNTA
Sequence of LTK (human) (P29376 whole entry, looked up): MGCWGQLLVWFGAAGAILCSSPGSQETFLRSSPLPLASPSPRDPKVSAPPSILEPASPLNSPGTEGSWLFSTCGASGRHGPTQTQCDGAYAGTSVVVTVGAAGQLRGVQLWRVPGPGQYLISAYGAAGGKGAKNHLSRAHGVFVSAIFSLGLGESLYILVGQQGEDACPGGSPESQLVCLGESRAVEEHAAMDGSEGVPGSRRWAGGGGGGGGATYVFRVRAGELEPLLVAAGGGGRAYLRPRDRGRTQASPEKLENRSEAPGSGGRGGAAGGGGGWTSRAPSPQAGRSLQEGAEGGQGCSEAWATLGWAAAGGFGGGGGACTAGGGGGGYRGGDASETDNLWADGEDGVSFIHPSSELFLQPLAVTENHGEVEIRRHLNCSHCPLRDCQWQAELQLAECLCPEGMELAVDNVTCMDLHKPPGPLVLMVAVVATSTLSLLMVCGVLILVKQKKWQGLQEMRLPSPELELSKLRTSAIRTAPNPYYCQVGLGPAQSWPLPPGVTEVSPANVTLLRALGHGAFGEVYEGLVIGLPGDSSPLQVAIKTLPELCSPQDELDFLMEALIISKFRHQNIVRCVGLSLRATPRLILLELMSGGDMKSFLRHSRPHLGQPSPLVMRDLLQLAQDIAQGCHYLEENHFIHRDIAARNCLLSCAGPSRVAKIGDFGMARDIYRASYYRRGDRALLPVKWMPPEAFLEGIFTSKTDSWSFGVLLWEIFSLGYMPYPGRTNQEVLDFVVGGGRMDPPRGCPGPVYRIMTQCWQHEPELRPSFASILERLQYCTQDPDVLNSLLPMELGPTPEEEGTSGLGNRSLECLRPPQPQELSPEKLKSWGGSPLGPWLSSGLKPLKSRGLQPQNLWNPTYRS
Sequence of CDK1 CCNB1 (human) (P06493 whole entry, looked up): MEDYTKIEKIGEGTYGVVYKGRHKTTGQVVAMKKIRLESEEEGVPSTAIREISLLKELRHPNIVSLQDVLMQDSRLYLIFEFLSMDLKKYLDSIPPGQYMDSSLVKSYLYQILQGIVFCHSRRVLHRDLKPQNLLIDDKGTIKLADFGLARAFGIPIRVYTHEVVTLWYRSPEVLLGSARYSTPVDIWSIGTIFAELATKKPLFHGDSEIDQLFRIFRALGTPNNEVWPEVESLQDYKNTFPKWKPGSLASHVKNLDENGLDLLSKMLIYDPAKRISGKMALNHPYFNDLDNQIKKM
Sequence of CDK1 CCNB1 (human) (P14635 whole entry, looked up): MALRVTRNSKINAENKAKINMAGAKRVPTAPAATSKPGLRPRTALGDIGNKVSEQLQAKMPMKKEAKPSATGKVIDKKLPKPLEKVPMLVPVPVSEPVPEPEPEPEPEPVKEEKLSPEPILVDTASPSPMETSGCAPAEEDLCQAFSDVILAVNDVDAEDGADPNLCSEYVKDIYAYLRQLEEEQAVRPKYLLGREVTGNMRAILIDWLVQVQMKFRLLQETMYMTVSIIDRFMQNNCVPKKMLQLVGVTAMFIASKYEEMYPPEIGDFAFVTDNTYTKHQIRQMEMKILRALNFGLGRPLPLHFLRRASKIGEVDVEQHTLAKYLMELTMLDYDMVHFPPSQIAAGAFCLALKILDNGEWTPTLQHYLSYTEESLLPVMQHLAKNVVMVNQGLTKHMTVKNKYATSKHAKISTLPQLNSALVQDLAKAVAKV
Sequence of CDK1 CCNA2 (human) (P06493 whole entry, looked up): as the sequence (P06493 whole entry, looked up) above
Sequence of CDK1 CCNA2 (human) (P20248 whole entry, looked up): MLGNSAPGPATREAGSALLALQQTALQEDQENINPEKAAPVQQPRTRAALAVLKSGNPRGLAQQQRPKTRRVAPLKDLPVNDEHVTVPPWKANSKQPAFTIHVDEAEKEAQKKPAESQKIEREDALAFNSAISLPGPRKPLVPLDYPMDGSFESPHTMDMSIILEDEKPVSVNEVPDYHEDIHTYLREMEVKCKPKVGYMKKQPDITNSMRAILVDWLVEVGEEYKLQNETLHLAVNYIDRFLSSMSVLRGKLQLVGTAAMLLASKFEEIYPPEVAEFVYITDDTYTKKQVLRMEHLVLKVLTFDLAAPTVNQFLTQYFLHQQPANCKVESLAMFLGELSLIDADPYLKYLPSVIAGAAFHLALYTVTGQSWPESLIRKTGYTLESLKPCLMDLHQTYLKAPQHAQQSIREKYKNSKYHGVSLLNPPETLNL
Sequence of CDK2 CCNA2 (human) (P20248 whole entry, looked up, other chains not shown): as the sequence (P20248 whole entry, looked up) above

For the compound `Cc1nc(Nc2ncc(C(=O)Nc3c(C)cccc3Cl)s2)cc(N2CCN(CCO)CC2)n1`, the residual activity on CDK1 CCNA2 (human) was 96.3%; on CDK1 CCNB1 (human) it was 93.9%; on CDK2 CCNA2 (human) it was 92.4%; at CDK2 CCNE1 (human), 95.9%; at CDK3 CCNE1 (human) it was 91.7%; at CDK4 CCND1 (human) it was 94.4%. Also, the residual activity on CDK4 CCND3 (human) is 99.1%; at CDK5 CDK5R1 p25 (human) it was 102%; at CDK5 CDK5R1 p35 (human), 101%; at CDK6 CCND1 (human), 95.5%; on CDK6 CCND3 (human), 103%; on CDK7 CCNH MNAT1 (human) it was 112%. The residual activity was 104% at CDK9 CCNK (human); 84.1% at CDK9 CCNT1 (human); -0.191% at EPHB2 (human); -0.878% at FRK (human); 87.3% at MAP3K7 TAB1 (human); 106% at PRKCH (human).

For `CC(C)n1cnc2c(NCc3ccccc3)nc(NCCCO)nc21`, the residual activity at PRKCH (human) stood at 77%.

For `CO[C@H]1[C@@H](OC)C[C@H](C)[C@@H](OC)C2=CC(=O)C=C(NC(=O)/C(C)=C\C=C/[C@H](OC)[C@@H](OC(N)=O)/C(C)=C\[C@@H]1C)C2=O`, the residual activity came out at 104% at DYRK1B (human), 98.5% at LTK (human), 95.3% on PRKCH (human) and 97% on STK33 (human).

Consider `O=[N+]([O-])/C=C/c1ccc2c(c1)OCO2`, for which the residual activity on DYRK1B (human) came out at 112%; on LTK (human) it was 96.4%; on PRKCH (human) it was 103%; on STK33 (human) it was 94.2%.

Turning to `O=C(Nc1nc2ccccc2n1CCN1CCOCC1)c1cccc([N+](=O)[O-])c1`, at PRKCH (human), the residual activity came out at 94.9%.

Turning to `Cc1cc(C)c(/C=C2\C(=O)Nc3ccccc32)[nH]1`, the residual activity was 94.7% at PRKCH (human) and 98.5% at TLK2 (human).

For `COC[C@H]1OC(=O)c2coc3c2[C@@]1(C)C1=C(C3=O)[C@@H]2CCC(=O)[C@@]2(C)C[C@H]1OC(C)=O`, the residual activity on CDK1 CCNA2 (human) is 97%; at CDK1 CCNB1 (human), 101%; at CDK2 CCNA2 (human) it was 93.5%; on CDK2 CCNE1 (human) it was 105%; at CDK3 CCNE1 (human), 95.2%; at CDK4 CCND1 (human), 94.8%. Moreover, the residual activity was determined as 98.8% at CDK4 CCND3 (human); 87.6% at CDK5 CDK5R1 p25 (human); 88.7% on CDK5 CDK5R1 p35 (human); 90.1% on CDK6 CCND1 (human); 85.8% at CDK6 CCND3 (human); 93.3% on CDK7 CCNH MNAT1 (human). For the same compound, the residual activity at CDK9 CCNK (human) was 107%; on CDK9 CCNT1 (human) it was 93.7%; on DYRK1B (human), 100%; on MAP3K7 TAB1 (human), 97.2%; on PRKCH (human), 100%; on STK33 (human) it was 88.2%.

Values taken from the kinase profiling compilation of Christmann-Franck et al. (2016).
